The record followed here is ChEMBL document CHEMBL4334551, “Discovery of a New Sulfonamide Hepatitis B Capsid Assembly Modulator” (ACS Med Chem Lett, 2020).

For data set [1], the system named is Hepatitis B virus. The data set is described as follows: Antiviral activity in HBV infected in human HepAD38 cells assessed as reduction in viral replication incubated for 65 hrs by RT-PCR analysis. The following applies: HePAD38, 65 h. It is filed as functional, organism-based.
Data set [2] is described as follows: Cytotoxicity against human HepAD38 cells assessed as reduction in cell viability incubated for 65 hrs by EZ-Cytox cell viability assay. It is filed as cell-based.
In data set [3] the target is T1, Voltage-gated inwardly rectifying potassium channel KCNH2 (Homo sapiens, UniProt Q12809). The data set is described as follows: Inhibition of human ERG expressed in human HEK293 cells by patch clamp assay. It is filed as cell-based. On the technique in general: Patch clamp records ionic current or voltage across a cell membrane.
T1 sequence (Q12809 whole entry): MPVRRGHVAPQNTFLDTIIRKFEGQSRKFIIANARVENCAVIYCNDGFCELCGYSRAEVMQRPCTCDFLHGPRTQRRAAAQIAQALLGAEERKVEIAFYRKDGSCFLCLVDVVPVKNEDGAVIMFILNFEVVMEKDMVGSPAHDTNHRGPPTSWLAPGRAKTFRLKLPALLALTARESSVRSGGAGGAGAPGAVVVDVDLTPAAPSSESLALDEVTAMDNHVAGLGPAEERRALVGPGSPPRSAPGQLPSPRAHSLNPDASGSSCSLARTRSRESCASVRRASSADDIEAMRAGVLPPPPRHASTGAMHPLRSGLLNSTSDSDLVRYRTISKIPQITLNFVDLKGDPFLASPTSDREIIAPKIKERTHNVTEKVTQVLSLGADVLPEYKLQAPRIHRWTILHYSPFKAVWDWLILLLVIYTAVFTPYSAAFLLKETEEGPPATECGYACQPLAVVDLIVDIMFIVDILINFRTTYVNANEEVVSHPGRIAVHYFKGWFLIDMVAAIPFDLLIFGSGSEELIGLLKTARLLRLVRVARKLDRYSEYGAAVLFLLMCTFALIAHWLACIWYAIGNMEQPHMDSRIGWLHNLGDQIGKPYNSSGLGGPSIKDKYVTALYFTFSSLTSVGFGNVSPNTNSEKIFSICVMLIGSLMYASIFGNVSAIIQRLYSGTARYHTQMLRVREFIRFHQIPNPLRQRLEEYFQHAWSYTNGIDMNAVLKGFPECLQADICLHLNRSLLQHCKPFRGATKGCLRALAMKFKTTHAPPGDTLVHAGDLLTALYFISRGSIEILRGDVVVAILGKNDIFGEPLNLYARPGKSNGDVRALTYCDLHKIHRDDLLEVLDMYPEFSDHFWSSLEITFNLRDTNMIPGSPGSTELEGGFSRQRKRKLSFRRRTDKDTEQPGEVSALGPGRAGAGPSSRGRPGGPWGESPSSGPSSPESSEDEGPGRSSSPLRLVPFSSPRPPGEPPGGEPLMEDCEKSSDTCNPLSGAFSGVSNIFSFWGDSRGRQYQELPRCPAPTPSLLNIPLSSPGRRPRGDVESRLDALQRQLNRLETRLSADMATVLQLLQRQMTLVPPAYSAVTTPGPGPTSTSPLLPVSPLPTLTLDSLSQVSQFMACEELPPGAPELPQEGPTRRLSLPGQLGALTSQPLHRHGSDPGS
In data set [4] the test system is Hepatitis B virus. The data set is described as follows: Potency index, ratio of EC50 of NVR3-778 to EC50 of compound for antiviral activity in HBV infected in human HepAD38 cells assessed as reduction in viral replication incubated for 65 hrs by RT-PCR analysis. It is filed as functional.
Data set [5] concerns the target T2, Cytochrome P450 1A2 (Homo sapiens, UniProt P05177).
T2 sequence (P05177 whole entry): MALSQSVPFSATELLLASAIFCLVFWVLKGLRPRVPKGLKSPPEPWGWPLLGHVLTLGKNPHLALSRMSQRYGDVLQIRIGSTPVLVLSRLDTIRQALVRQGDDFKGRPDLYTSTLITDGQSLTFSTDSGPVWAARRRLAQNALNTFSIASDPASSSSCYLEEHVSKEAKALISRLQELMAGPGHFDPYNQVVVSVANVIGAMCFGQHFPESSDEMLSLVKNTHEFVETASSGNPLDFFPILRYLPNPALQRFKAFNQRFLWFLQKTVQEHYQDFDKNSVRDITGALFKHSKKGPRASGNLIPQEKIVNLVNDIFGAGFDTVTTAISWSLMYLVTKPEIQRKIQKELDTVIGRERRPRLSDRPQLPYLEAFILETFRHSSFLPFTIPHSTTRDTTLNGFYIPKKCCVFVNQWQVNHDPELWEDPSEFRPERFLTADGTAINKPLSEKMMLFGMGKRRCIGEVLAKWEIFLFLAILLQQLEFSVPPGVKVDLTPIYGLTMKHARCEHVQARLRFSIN
The data set is described as follows: Inhibition of human CYP1A2 using phenacetin as substrate by LC/MS/MS analysis. It is filed as ADME.

Data set [6] addresses Cytochrome P450 2C9 (Homo sapiens, UniProt P11712). The data set is described as follows: Inhibition of human CYP2C9 using tolubutamide as substrate by LC/MS/MS analysis. It is filed as ADME.
The target of data set [7] is Cytochrome P450 2C19 (Homo sapiens, UniProt P33261). The data set is described as follows: Inhibition of human CYP2C19 using S-mephenytoin as substrate by LC/MS/MS analysis. It is filed as ADME.
Cytochrome P450 2C19, sequence (P33261 whole entry): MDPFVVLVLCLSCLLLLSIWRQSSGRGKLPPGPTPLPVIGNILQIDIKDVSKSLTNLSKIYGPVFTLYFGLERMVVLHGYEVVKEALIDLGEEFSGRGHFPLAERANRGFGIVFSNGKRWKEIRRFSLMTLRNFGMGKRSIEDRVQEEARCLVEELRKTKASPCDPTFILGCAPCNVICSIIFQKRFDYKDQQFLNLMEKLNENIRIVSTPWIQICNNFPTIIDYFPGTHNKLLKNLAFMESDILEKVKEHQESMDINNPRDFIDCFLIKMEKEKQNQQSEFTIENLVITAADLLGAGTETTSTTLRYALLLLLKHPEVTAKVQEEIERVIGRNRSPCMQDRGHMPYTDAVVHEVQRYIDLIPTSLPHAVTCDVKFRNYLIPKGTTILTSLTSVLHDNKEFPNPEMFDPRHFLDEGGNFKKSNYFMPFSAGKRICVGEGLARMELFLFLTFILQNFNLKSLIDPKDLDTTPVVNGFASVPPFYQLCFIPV
For data set [8], the target named is Cytochrome P450 2D6 (Homo sapiens, UniProt P10635). The data set is described as follows: Inhibition of human CYP2D6 using dextromethorphan as substrate by LC/MS/MS analysis. It is filed as ADME.
Cytochrome P450 2D6, sequence (P10635 whole entry): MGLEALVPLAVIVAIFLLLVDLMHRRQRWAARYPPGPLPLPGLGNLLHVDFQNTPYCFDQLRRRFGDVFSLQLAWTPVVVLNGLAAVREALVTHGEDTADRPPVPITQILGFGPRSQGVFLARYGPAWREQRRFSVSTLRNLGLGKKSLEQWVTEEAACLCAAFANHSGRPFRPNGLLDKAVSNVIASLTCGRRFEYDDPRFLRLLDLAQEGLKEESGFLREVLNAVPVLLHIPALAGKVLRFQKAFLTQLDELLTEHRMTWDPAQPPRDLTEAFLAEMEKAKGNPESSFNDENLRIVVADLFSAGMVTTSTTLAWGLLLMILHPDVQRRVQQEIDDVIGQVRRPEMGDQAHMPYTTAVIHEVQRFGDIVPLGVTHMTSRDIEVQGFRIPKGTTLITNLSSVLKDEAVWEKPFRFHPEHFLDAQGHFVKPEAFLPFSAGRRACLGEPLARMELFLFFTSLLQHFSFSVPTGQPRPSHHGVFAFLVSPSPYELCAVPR
Data set [9] has as its target Cytochrome P450 3A4 (Homo sapiens, UniProt P08684). The data set is described as follows: Inhibition of human CYP3A4 using […] as substrate by LC/MS/MS analysis. It is filed as ADME.
The target in data set [10] is T1, Voltage-gated inwardly rectifying potassium channel KCNH2. The data set is described as follows: Inhibition of human ERG by competitive fluorescence polarization assay.
Data set [11] can be described thus: Stability in rat liver microsomes assessed as compound remaining at 1 uM incubated for 30 mins by LC/MS/MS analysis. The following applies: read-out: Stability. It is filed as ADME, Microsome. (Microsomes from liver hold many membrane-bound enzymes, among them those of drug oxidation.)
Data set [12] in a line: Stability in human liver microsomes assessed as compound remaining at 1 uM incubated for 30 mins by LC/MS/MS analysis. It is filed as ADME, Microsome. The following applies: read-out: Stability.
The nature of data set [13]: Stability in rat liver microsomes assessed as half life at 1 uM incubated for 30 mins by LC/MS/MS analysis. It is filed as ADME, Microsome.
The nature of data set [14]: Stability in rat plasma assessed as compound remaining at 5 uM incubated for 4 hrs by LC/MS/MS analysis. The following applies: read-out: Stability. It is filed as ADME, cell-free.
Data set [15] can be described thus: Stability in human plasma assessed as compound remaining at 5 uM incubated for 4 hrs by LC/MS/MS analysis. The following applies: read-out: Stability. It is filed as ADME, cell-free.
Data set [16] in a line: Protein binding in rat plasma assessed as compound remaining at 5 uM incubated for 4 hrs by LC/MS/MS analysis. It is filed as ADME, cell-free. The note with it: read-out: PPB.
The nature of data set [17]: Protein binding in human plasma assessed as compound remaining at 5 uM incubated for 4 hrs by LC/MS/MS analysis. It is filed as ADME, cell-free. The note with it: read-out: PPB (converted).
The nature of data set [18]: Half life in Sprague-Dawley rat at 5 mg/kg, iv measured upto 24 hrs by LC/MS/MS analysis. The note with it: in vivo. It is filed as ADME, organism-based.
Data set [19] can be described thus: AUClast in Sprague-Dawley rat at 5 mg/kg, iv measured upto 24 hrs by LC/MS/MS analysis. Details: time < 24 hr, dose 5 mg/kg, route intravenous. It is filed as ADME, organism-based. The following applies: in vivo.
A short description of data set [20]: Clearance in Sprague-Dawley rat at 5 mg/kg, iv measured upto 24 hrs by LC/MS/MS analysis. The note with it: in vivo. It is filed as ADME, organism-based.
A short description of data set [21]: Volume of distribution at steady state in Sprague-Dawley rat at 5 mg/kg, iv measured upto 24 hrs by LC/MS/MS analysis. It is filed as ADME, organism-based. The note with it: in vivo, read-out: Vdss.
A short description of data set [22]: Tmax in Sprague-Dawley rat at 5 mg/kg, po measured upto 24 hrs by LC/MS/MS analysis. It is filed as ADME, organism-based. The note with it: in vivo.
The nature of data set [23]: Cmax in Sprague-Dawley rat at 5 mg/kg, po measured upto 24 hrs by LC/MS/MS analysis. It is filed as ADME, organism-based. Details: dose 5 mg/kg, route oral. The note with it: in vivo.
The nature of data set [24]: Half life in Sprague-Dawley rat at 5 mg/kg, po measured upto 24 hrs by LC/MS/MS analysis. It is filed as ADME, organism-based. The following applies: in vivo.
Data set [25] is described as follows: AUClast in Sprague-Dawley rat at 5 mg/kg, po measured upto 24 hrs by LC/MS/MS analysis. The note with it: in vivo. Details: dose 5 mg/kg, time < 24 hr, route oral. It is filed as ADME, organism-based.
Data set [26] is described as follows: AUC in Sprague-Dawley rat at 5 mg/kg, po measured upto 24 hrs by LC/MS/MS analysis. It is filed as ADME, organism-based. Details: dose 5 mg/kg, time < 24 hr, route oral. The note with it: in vivo.
The nature of data set [27]: Oral bioavailability in Sprague-Dawley rat at 5 mg/kg measured upto 24 hrs by LC/MS/MS analysis. It is filed as ADME, organism-based. The following applies: in vivo.
The nature of data set [28]: AUC in Sprague-Dawley rat at 5 mg/kg, iv measured upto 24 hrs by LC/MS/MS analysis. It is filed as ADME, organism-based. Details: dose 5 mg/kg, time < 24 hr, route intravenous. The following applies: in vivo.
Data set [29] has as its system Hepatitis B virus. The data set is described as follows: Antiviral activity in HBV infected in human HepG2.2.15 cells assessed as reduction in viral replication incubated for 5 days by qPCR analysis. It is filed as functional, organism-based. The note with it: HepG2.2.15, 120 h. For orientation: In qPCR the cycle at which signal appears reflects the starting amount.

pEC50, pIC50: −log10 of the molar value.

Cytochrome P450 3A4, sequence (P08684 whole entry): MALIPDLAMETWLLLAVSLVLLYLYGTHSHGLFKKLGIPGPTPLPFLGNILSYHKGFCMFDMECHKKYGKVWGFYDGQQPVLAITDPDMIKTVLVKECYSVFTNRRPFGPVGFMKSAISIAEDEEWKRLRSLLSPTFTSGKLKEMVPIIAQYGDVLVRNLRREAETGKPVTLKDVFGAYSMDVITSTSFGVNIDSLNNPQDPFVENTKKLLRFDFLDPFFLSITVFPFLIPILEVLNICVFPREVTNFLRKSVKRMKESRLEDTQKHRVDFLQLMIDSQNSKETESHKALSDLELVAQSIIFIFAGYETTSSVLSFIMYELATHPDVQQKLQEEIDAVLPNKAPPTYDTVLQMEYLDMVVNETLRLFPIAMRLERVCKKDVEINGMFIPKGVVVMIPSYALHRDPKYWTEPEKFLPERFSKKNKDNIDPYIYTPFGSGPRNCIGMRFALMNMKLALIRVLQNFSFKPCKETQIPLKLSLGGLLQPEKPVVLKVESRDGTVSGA
Cytochrome P450 2C9, sequence (P11712 whole entry): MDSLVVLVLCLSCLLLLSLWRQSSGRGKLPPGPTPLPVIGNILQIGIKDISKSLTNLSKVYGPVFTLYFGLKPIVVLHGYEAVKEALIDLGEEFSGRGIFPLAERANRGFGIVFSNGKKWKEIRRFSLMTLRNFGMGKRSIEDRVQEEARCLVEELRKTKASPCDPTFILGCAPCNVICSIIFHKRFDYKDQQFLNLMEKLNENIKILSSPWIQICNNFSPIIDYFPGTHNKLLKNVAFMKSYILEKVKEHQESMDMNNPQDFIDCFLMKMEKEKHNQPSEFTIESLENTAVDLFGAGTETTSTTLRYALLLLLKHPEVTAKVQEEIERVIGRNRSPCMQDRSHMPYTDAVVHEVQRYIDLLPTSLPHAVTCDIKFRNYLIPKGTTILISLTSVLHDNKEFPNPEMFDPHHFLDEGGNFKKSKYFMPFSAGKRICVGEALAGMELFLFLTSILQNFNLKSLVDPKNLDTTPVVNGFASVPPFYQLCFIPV

Take `CNc1cc(F)c(S(=O)(=O)N2CCC(O)CC2)cc1C(=O)Nc1cc(F)c(F)c(F)c1`: the negative-log EC50 (pEC50) in data set [1] was less than 5.48. In [2], the CC50 at 65 h is greater than 100 µM.

Regarding `Nc1ccc(S(=O)(=O)N2CCC(O)CC2)cc1C(=O)Nc1cc(F)c(F)c(F)c1`, in data set [1], the pEC50 is 6.62. Besides, the half-maximal cytotoxic concentration (CC50) at 65 h in data set [2] was found to be 76.9 µM.

For `COc1ccc(S(=O)(=O)N2CCC(O)CC2)cc1C(=O)Nc1cc(F)c(F)c(F)c1`, the negative logarithm of the EC50 (pEC50) in data set [1] is less than 5.48. The CC50 at 65 h in data set [2] is greater than 100 µM.

For `O=C(Nc1cc(F)c(F)c(F)c1)c1cc(Br)c(F)c(S(=O)(=O)N2CCC(O)CC2)c1`, the pEC50 in data set [1] is less than 5.48. Further, the CC50 at 65 h in data set [2] is greater than 100 µM.

Turning to `CN(C)c1ccc(S(=O)(=O)N2CCC(O)CC2)cc1C(=O)Nc1cc(F)c(F)c(F)c1`, in [1], the pEC50 was less than 5.48. Moreover, the CC50 at 65 h in [2] is greater than 100 µM.

Take `Nc1cc(F)c(S(=O)(=O)N2CCC(O)CC2)cc1C(=O)Nc1cc(F)c(F)c(F)c1`: the pIC50 in data set [3] was 5.06; in data set [5], 4.09; in data set [6], 4.77; in [7] it was 4.64; in data set [8], 4.49; in data set [9], 4.56. The same molecule showed a negative-log IC50 (pIC50) in data set [10] of 4.96. Moreover, in data set [4], the “Ratio EC50” value is on record as 9. The pEC50 in data set [1] was 7.36. The CC50 at 65 h in data set [2] was determined as 48.9 µM. Besides, the results for the remaining at 0.5 h, 1 µM in data set [11] and in data set [12] were 49.2% and 50.2%, respectively. The half-life at 1 µM in data set [13] came to 0.481 h. The remaining at 4 h, 5 µM in data set [14] amounted to 90.1%; in [15], 71.9%; in [16], 98.7%. Moreover, in data set [17], the fraction unbound at 4 h, 5 µM is 0.0073. Besides, the half-life in [18] was 6.67 h; in data set [24], 3.44 h. Moreover, the results for the area under the curve AUC(0-t) at 24 h in data set [19] and in data set [25] were 6300 ng·h/mL and 5050 ng·h/mL, respectively. The same molecule gave a clearance in data set [20] of 13.5 mL/min/kg. Also, the Vd in [21] was 2.95 L/kg. Moreover, in [22], the Tmax was found to be 1.58 h. The highest level in data set [23] (Cmax) was 940 ng/mL. The AUC at 24 h amounted to 5090 ng·h/mL in [26] and 6420 ng·h/mL in [28]. The molecule further registered a bioavailability in data set [27] of 80.2%.

Take `CSc1ccc(S(=O)(=O)N2CCC(O)CC2)cc1C(=O)Nc1cc(F)c(F)c(F)c1`: the pEC50 in data set [1] was 6.14. Further, the CC50 at 65 h in data set [2] is greater than 100 µM.

As for `O=C(Nc1cc(F)c(F)c(F)c1)c1cccc(S(=O)(=O)N2CCC(O)CC2)c1`, in data set [1], the pEC50 was 6.01. In [2], the CC50 at 65 h was found to be 77.7 µM.

`O=C(Nc1cc(F)c(F)c(F)c1)c1ccc(F)c(S(=O)(=O)N2CCC(O)CC2)c1`: the pEC50 in [29] was 8.19; in [1] it was 6.44. The CC50 at 65 h in data set [2] worked out at 57.7 µM.

On to `O=C(Nc1cc(F)c(F)c(F)c1)c1cc(S(=O)(=O)N2CCC(O)CC2)cc2cc[nH]c12`, for which the negative logarithm of the EC50 (pEC50) in [1] was less than 5.48. The CC50 at 65 h in data set [2] is greater than 100 µM.

Consider `O=C(Nc1cc(F)c(F)c(F)c1)c1cc(S(=O)(=O)N2CCC(O)CC2)ccc1O`, for which the pEC50 in [1] is less than 5.48. Besides, the CC50 at 65 h in data set [2] was greater than 100 µM.

`Nc1cc(C(=O)Nc2cc(F)c(F)c(F)c2)cc(S(=O)(=O)N2CCC(O)CC2)c1F`: in data set [1], the pEC50 is 6.55. The CC50 at 65 h in [2] came to 87.9 µM.

In general, pEC50 refers to the EC50 on a negative log10 scale, so that one unit is a factor of ten. Usually CC50 stands for the concentration giving 50% cytotoxicity. The pIC50 is the IC50 on a negative log10 scale, so that one unit is a factor of ten. The low end stands for a high IC50, the high end for a low IC50. By half-life is commonly meant the time in which the quantity being followed falls by half. As usually defined, the AUC(0-t) is exposure summed from dosing to a finite time, without extrapolation to infinity. Low readings indicate low exposure, high ones high exposure. Usually clearance stands for a measure of how efficiently the substance is removed, as volume per time. One may read the Tmax as the time from dosing to the highest level. As usually defined, the Cmax is the highest concentration seen after dosing. The AUC is the area under the concentration-time curve, a measure of exposure. High values mean high exposure, low ones low exposure. Broadly, the bioavailability is the share of a dose that reaches the circulation, judged against a reference dose that is usually intravenous.
